# Measured values taken from US20090188497A1, “MEDICAL PRODUCT CONTAINING TIOTROPIUM” (Boehringer Ingelheim International GmbH, priority 2003, published 2009).
# Assay: In-use stability test of FPD, capsules in opened blister at 40° C. and 75% Rh (tests S3-S5)
# Type: physicochemical
# Conditions: conclusion of the tests on SPIRIVA
# Source text: SPIRIVA® powder formulation in bulk and SPIRIVA® capsules from our local pharmacy were introduced to the laboratory together with the […]®. The laboratory was set up to perform in-vitro tests according to European Pharmacopoeia (EP) and US Pharmacopoeia (USP) using two Andersen cascade impactors. All analytical work where then performed according to standardized methods for Physical Tests and Determinations for Aerosols, metered-dose inhalers and dry powder inhalers described in pharmacopoeias (e.g. USP 2002<601>) using a state of the art High Performance Liquid Chromatograph (HPLC) system.
# (§1) From the blister holding 5 capsules one capsule was withdrawn and the remaining 4 capsules were put 4 days into 40° C. and 75% Rh. The blister containing the 4 capsules was then put in an exicator for 2 h before tests were performed. The test was performed with 4 kPa pressure drop over the […]® at room temperature and laboratory ambient conditions.
# as §1, with “put 13” for “put 4”, “conditions. […]” for “conditions.”
smiles,measurement,value
C[N+]1(C)[C@@H]2C[C@@H](OC(=O)C(O)(c3cccs3)c3cccs3)C[C@H]1[C@@H]1O[C@@H]12 [tiotropium],sensitivity to moisture,extremely sensitive to moisture
